Measured values reported in ChEMBL document CHEMBL3872277, “1-Heteroarylpropan-2-ones as inhibitors of fatty acid amide hydrolase: Studies on structure-activity relationships and metabolic stability” (Bioorg Med Chem, 2017).
pIC50: −log10 of the molar value. Values after ≈ are worked out from the molar mass of the structure shown.

Assays:
[1] = Metabolic stability in rat liver S9 fraction assessed as amount of parent compound remaining after 30 mins under aerobic conditions in presence of NADPH by reversed HPLC -UV detection analysis; format: ADME, subcellular; settings: for remaining at 0.5 h: liver S9 fraction, read-out: Stability; for Stability: s9, 0.5 h
[2] = Ratio of IC50 for pig platelet cytosolic phospholipase A2alpha to IC50 for FAAH in rat brain microsomes
[3] = Thermodynamic aqueous solubility of the compound at pH 7.4 at 20 degC sonicated for 10 mins after 24 hrs UV-HPLC analysis; format: physicochemical; settings: read-out: Therm_solubility
[4] = Inhibition of pig platelet cytosolic phospholipase A2alpha using 1-stearoyl-2-arachidonoyl-sn-glycero-3-phosphocholine/1,2-dioleoyl-sn-glycerol as substrate after 60 mins by reversed phase HPLC-UV detection analysis; set-up: species or system Sus scrofa
[5] = target: T1, Fatty-acid amide hydrolase 1 (Rattus norvegicus, UniProt P97612); experiment: Inhibition of FAAH in rat brain microsomes using N-(2-hydroxyethyl)-4-pyren-1-ylbutanamide as substrate after 60 mins by fluorescence-based reversed phase HPLC analysis
T1 sequence (P97612 whole entry): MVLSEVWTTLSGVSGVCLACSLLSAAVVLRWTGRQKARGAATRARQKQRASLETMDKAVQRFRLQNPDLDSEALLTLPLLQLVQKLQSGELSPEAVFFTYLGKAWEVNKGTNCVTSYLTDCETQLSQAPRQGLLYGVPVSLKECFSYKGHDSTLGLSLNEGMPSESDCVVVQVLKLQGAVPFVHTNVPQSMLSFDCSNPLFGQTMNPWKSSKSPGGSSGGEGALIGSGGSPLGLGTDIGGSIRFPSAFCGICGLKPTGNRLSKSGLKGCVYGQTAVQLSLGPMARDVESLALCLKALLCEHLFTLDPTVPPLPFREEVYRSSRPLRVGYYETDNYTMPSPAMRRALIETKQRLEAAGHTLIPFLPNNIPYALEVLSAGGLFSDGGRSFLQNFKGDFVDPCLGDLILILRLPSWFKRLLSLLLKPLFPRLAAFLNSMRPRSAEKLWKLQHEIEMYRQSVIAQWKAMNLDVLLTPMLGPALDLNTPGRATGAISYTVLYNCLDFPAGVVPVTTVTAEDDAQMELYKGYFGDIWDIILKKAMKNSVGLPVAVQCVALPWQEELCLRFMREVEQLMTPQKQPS

[6] = Drug metabolism in rat liver S9 fraction assessed as alcohol derivative metabolite formation after 30 mins under aerobic conditions in presence of NADPH by reversed HPLC/MS analysis; format: ADME, subcellular; settings: s9, 0.5 h
[7] = Drug metabolism in rat liver S9 fraction assessed as hydroxylation product metabolite formation after 30 mins under aerobic conditions in presence of NADPH by reversed HPLC/MS analysis; format: ADME, subcellular; settings: s9, 0.5 h

Compound	remaining at 0.5 h [1]	pIC50 [5]	also measured
O=C(COc1ccc(-c2ccccc2)cc1)Cn1ncnn1	0%	7.96	Ratio IC50 [2]: 100 to 500; solubility thermodynamic at 24 h [3]: 10 µg/mL (≈ 34 µM); pIC50 [4]: 5.74
CCCCCCCCCCOc1ccc(OCC(=O)COc2ccc(C(=O)O)cc2)cc1	–	–	pIC50 [4]: 8.19
O=C1NC(=O)C(c2ccccc2)(c2ccccc2)N1 [PHENYTOIN]	–	–	solubility thermodynamic at 24 h [3]: 18 µg/mL (≈ 71.4 µM)
CCCCCCCCc1ccc(OCC(=O)Cn2cnc3ncccc32)cc1	–	6.21	–
CCCCCCCCc1ccc(OCC(=O)Cn2ncc3ccccc32)cc1	–	5.64	–
CCCCCCCCc1ccc(OCC(=O)Cn2ccnc2)cc1	–	6.39	–
CC(Oc1ccc(-c2ccc(F)cc2)cc1)C(=O)Cn1nnc2ccccc21 (stereo unspecified)	29%	7.92	–
O=C(COc1ccc(-c2ccc(F)cc2)cc1)Cn1nnc2ccccc21	–	7.92	Stability [1]: Unstable
O=C(COc1ccc(-c2ccc(Cl)cc2)cc1)Cn1nnc2ccccc21	–	7.68	Stability [1]: Unstable
CC(Oc1ccc(-c2ccccc2)cc1)C(=O)Cn1cnnn1 (stereo unspecified)	9%	7.72	Ratio IC50 [2]: 100 to 500; solubility thermodynamic at 24 h [3]: 4 µg/mL (≈ 13 µM); pIC50 [4]: 5.16
CCCCCCCCc1ccc(OCC(=O)Cn2ncc3cccnc32)cc1	–	5.80	–
CCCCCCCCc1ccc(OCC(=O)Cn2ccc3ncccc32)cc1	–	< 5.00	–
CCCCCCCCc1ccc(OCC(=O)Cn2cccn2)cc1	–	6.08	–
CCCCCCCCc1ccc(OCC(=O)Cn2nnc3ccccc32)cc1	–	7.82	–
O=C(COc1ccc(-c2cccc(Cl)c2)cc1)Cn1nnc2ccccc21	–	7.96	Stability [1]: Unstable
CCCCCCCCc1ccc(OCC(=O)Cn2nccn2)cc1	–	7.00	–

Compound	remaining at 0.5 h [1]	pIC50 [5]	also measured
CCCCCCCCc1ccc(OCC(=O)Cn2cnc3ccccc32)cc1	–	6.32	–
CC(C(=O)COc1ccc(-c2ccccc2)cc1)n1nnc2ccccc21 (stereo unspecified)	21%	6.20	–
CC(C(=O)COc1ccc(-c2ccccc2)cc1)n1ncnn1 (stereo unspecified)	0%	5.20	–
O=C(COc1ccc(-c2ccccc2)cc1)Cn1nnc2ccccc21	0%	7.92	Ratio IC50 [2]: 100 to 500; solubility thermodynamic at 24 h [3]: 2 µg/mL (≈ 5.82 µM); pIC50 [4]: 5.62; Drug metabolism [6]: Metabolite_Detected
CCC(Oc1ccc(-c2ccccc2)cc1)C(=O)Cn1nnc2ccccc21 (stereo unspecified)	51%	5.74	Drug metabolism [7]: Metabolite_Notdetected
CC(Oc1ccc(-c2ccccc2)cc1)C(=O)Cn1nnc2ccccc21 (stereo unspecified)	23%	7.89	Ratio IC50 [2]: 100 to 500; solubility thermodynamic at 24 h [3]: < 1 µg/mL; pIC50 [4]: 5.17
O=C(COc1ccc(-c2ccccc2)cc1)Cn1cnnn1	0%	7.37	Ratio IC50 [2]: 100 to 500; solubility thermodynamic at 24 h [3]: 11 µg/mL (≈ 37.4 µM); pIC50 [4]: 5.31
CCCCCCCCc1ccc(OCC(=O)Cn2nnc3ncccc32)cc1	–	7.31	–
CCCCCCCCc1ccc(OCC(=O)Cn2cnc3cccnc32)cc1	–	6.39	–
CCCCCCCCc1ccc(OCC(=O)Cn2cncn2)cc1	–	7.28	–
CC(C(=O)COc1ccc(-c2ccccc2)cc1)n1cnnn1 (stereo unspecified)	11%	< 5.00	–
CC(Oc1ccc(-c2ccccc2)cc1)C(=O)Cn1ncnn1 (stereo unspecified)	0%	8.05	Ratio IC50 [2]: 100 to 500; solubility thermodynamic at 24 h [3]: 2 µg/mL (≈ 6.49 µM); pIC50 [4]: 5.48
CCCCCCCCc1ccc(OCC(=O)Cn2ncc3ncccc32)cc1	–	7.03	–
O=C(COc1ccc(-c2cccc(F)c2)cc1)Cn1nnc2ccccc21	–	7.85	Stability [1]: Unstable
CCCCCCCCc1ccc(OCC(=O)Cn2nnc3cccnc32)cc1	–	7.89	–
